Measurements taken from ChEMBL document CHEMBL1201862, “PubChem BioAssay data set” (2004).
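Where inhibition never reached the appropriate level, the endpoint shown equals the highest concentration tested. Otherwise, values were interpolated linearly from a five-concentration, 48-hour dose response in 96-well plates. The concentration for 50% growth inhibition is given as GI50.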 Activity calls are given as the source filed them. Rule as the data show it: active = GI50 up to about 1.1 µM and inactive = higher.

Columns and labels:
Experiment in all cases: NCI anticancer screen, dose series, 48 h
[1] = test system: A549
[2] = test system: DU-145
[3] = test system: HCT-116
[4] = test system: HCT-15
[5] = test system: HOP-62
[6] = test system: MDA-MB-231
[7] = test system: MDA-MB-435
[8] = test system: NCI-H23
[9] = test system: NCI-H460
[10] = test system: OVCAR-3
[11] = test system: OVCAR-4
[12] = test system: OVCAR-5
[13] = test system: SK-OV-3
[14] = test system: SN12C
[15] = test system: SW-620
[16] = test system: TK-10
[17] = test system: U-251
[18] = test system: UACC-257
[19] = test system: UO-31
[20] = test system: CAKI-1

Structure (SMILES)	GI50 [1]	GI50 [2]	GI50 [3]	GI50 [4] [µM]	GI50 [5]	GI50 [6]	GI50 [7]	GI50 [8]	GI50 [9]	GI50 [10]	GI50 [11]	GI50 [12]	GI50 [13]	GI50 [14]	GI50 [15]	GI50 [16]	GI50 [17]	GI50 [18]	GI50 [19]	GI50 [20]
COc1ccccc1N1C(=O)CSC1c1c[nH]c2ccccc12 (configuration not stated)	> 100 µM (inactive)	> 100 µM (inactive)	> 100 µM (inactive)	> 100	> 100 µM (inactive)	3.69 µM (inactive)	> 100 µM (inactive)	> 100 µM (inactive)	> 100 µM (inactive)	> 100 µM (inactive)	> 100 µM (inactive)	> 100 µM (inactive)	> 100 µM (inactive)	> 100 µM (inactive)	> 100 µM (inactive)	> 100 µM (inactive)	> 100 µM (inactive)	> 100 µM (inactive)	58.1 µM (inactive)	
Cc1cccc(Cl)c1NC(=O)/C=C/c1ccccc1	94 µM (inactive)	67.6 µM (inactive)	39.4 µM (inactive)	> 100	74.6 µM (inactive)	32.4 µM (inactive)	> 100 µM (inactive)	> 100 µM (inactive)	86.3 µM (inactive)	> 100 µM (inactive)	26.9 µM (inactive)	> 100 µM (inactive)	37.3 µM (inactive)	80.5 µM (inactive)	> 100 µM (inactive)	40.6 µM (inactive)	87.7 µM (inactive)	> 100 µM (inactive)		76.9 µM (inactive)
COc1cc(C2SC(=N)Nc3c2c(C)nn3C(=O)Cc2ccccc2)ccc1O (configuration not stated)	> 100 µM (inactive)	> 100 µM (inactive)	> 100 µM (inactive)	> 100	> 100 µM (inactive)	> 100 µM (inactive)	> 100 µM (inactive)	> 100 µM (inactive)	> 100 µM (inactive)				> 100 µM (inactive)	> 100 µM (inactive)	> 100 µM (inactive)	> 100 µM (inactive)		> 100 µM (inactive)	> 100 µM (inactive)	> 100 µM (inactive)
Cc1c(C)c2c(c(N)c1C#N)C(=O)N(N)C2=O	> 100 µM (inactive)	> 100 µM (inactive)	84.9 µM (inactive)	> 100		> 100 µM (inactive)	> 100 µM (inactive)	> 100 µM (inactive)	> 100 µM (inactive)	> 100 µM (inactive)	> 100 µM (inactive)	> 100 µM (inactive)	> 100 µM (inactive)	> 100 µM (inactive)	80.5 µM (inactive)	> 100 µM (inactive)	> 100 µM (inactive)	> 100 µM (inactive)	93.3 µM (inactive)	> 100 µM (inactive)
Clc1ccc(CN2CCCN(Cc3ccc(Cl)cc3)C2c2cc3ccccc3c3ccccc23)cc1	> 100 µM (inactive)	44.2 µM (inactive)	44.8 µM (inactive)	62.8	> 100 µM (inactive)	25.4 µM (inactive)	30.2 µM (inactive)	46.3 µM (inactive)		57.9 µM (inactive)	55.6 µM (inactive)	36.9 µM (inactive)	> 100 µM (inactive)	67.3 µM (inactive)	51.8 µM (inactive)	78.5 µM (inactive)	33.3 µM (inactive)	22.8 µM (inactive)	88.1 µM (inactive)	49.8 µM (inactive)
N#Cc1c(-c2ccccc2)c(/C=N/c2cccc(C(F)(F)F)c2)c(=O)n2c1[nH]c1ccccc12	23.6 µM (inactive)		29.6 µM (inactive)	33	30.5 µM (inactive)	42.3 µM (inactive)	39.5 µM (inactive)	34.9 µM (inactive)	14.5 µM (inactive)		51.1 µM (inactive)	10.8 µM (inactive)	26.9 µM (inactive)	17.4 µM (inactive)	30.2 µM (inactive)	32.9 µM (inactive)	45 µM (inactive)	32.5 µM (inactive)	7.62 µM (inactive)	2.07 µM (inactive)
COC[C@@H](/N=C/c1ccc([N+](=O)[O-])cc1)C(C)C	> 100 µM (inactive)	> 100 µM (inactive)	26 µM (inactive)	> 100		3.24 µM (inactive)	> 100 µM (inactive)	> 100 µM (inactive)	> 100 µM (inactive)		> 100 µM (inactive)	> 100 µM (inactive)	> 100 µM (inactive)	> 100 µM (inactive)	> 100 µM (inactive)	> 100 µM (inactive)	> 100 µM (inactive)	> 100 µM (inactive)	> 100 µM (inactive)	> 100 µM (inactive)
CCOC(=O)C12C(=O)CCN1CCc1ccccc1C2C (configuration not stated)	> 100 µM (inactive)	> 100 µM (inactive)	> 100 µM (inactive)	> 100	> 100 µM (inactive)	> 100 µM (inactive)	> 100 µM (inactive)	> 100 µM (inactive)		> 100 µM (inactive)	> 100 µM (inactive)	> 100 µM (inactive)	> 100 µM (inactive)	> 100 µM (inactive)	> 100 µM (inactive)	> 100 µM (inactive)	> 100 µM (inactive)	> 100 µM (inactive)	> 100 µM (inactive)	> 100 µM (inactive)
C=CCC(SC)C1=C(C)C(=O)c2ccccc21 (configuration not stated)	> 10 µM (inactive)	> 10 µM (inactive)		> 10	> 10 µM (inactive)	> 10 µM (inactive)	> 10 µM (inactive)	> 10 µM (inactive)	> 10 µM (inactive)	> 10 µM (inactive)		> 10 µM (inactive)	> 10 µM (inactive)	> 10 µM (inactive)	> 10 µM (inactive)	> 10 µM (inactive)	> 10 µM (inactive)	> 10 µM (inactive)	> 10 µM (inactive)	
COC(=O)[C@H]1NC(=O)CCSSC1(C)C	> 100 µM (inactive)	> 100 µM (inactive)	> 100 µM (inactive)	> 100	> 100 µM (inactive)	> 100 µM (inactive)	> 100 µM (inactive)	> 100 µM (inactive)		> 100 µM (inactive)	> 100 µM (inactive)	> 100 µM (inactive)		> 100 µM (inactive)	> 100 µM (inactive)	> 100 µM (inactive)	> 100 µM (inactive)	> 100 µM (inactive)	> 100 µM (inactive)	> 100 µM (inactive)
O=C(Nc1ccccc1)c1cc2ccccc2c(/N=N/c2ccc([N+](=O)[O-])cc2)c1O	> 100 µM (inactive)	> 100 µM (inactive)	> 100 µM (inactive)	> 100	30.6 µM (inactive)	71.9 µM (inactive)	> 100 µM (inactive)	33.2 µM (inactive)		70.1 µM (inactive)	> 100 µM (inactive)	> 100 µM (inactive)	81.8 µM (inactive)	> 100 µM (inactive)	> 100 µM (inactive)	56.1 µM (inactive)	31.4 µM (inactive)	> 100 µM (inactive)	> 100 µM (inactive)	> 100 µM (inactive)
[O-][N+]1=C(c2ccccc2)/C(=C2/C(c3ccccc3)=[N+]([O-])c3ccccc32)Cc2ccccc21	13.8 µM (inactive)	22 µM (inactive)	17.1 µM (inactive)	16.9	32.4 µM (inactive)	13.6 µM (inactive)	20.2 µM (inactive)	15.5 µM (inactive)		16.8 µM (inactive)	13.8 µM (inactive)	33.6 µM (inactive)	26.4 µM (inactive)	16.6 µM (inactive)	22.4 µM (inactive)	18.2 µM (inactive)	14.5 µM (inactive)	18.3 µM (inactive)	14.5 µM (inactive)	22 µM (inactive)
Cc1nc2sc3ccccc3n2c(=O)c1/N=N/c1ccc(Br)cc1	> 100 µM (inactive)	> 100 µM (inactive)	> 100 µM (inactive)	> 100	> 100 µM (inactive)	60.1 µM (inactive)	> 100 µM (inactive)	> 100 µM (inactive)	> 100 µM (inactive)	> 100 µM (inactive)	71.3 µM (inactive)	> 100 µM (inactive)	> 100 µM (inactive)	> 100 µM (inactive)	> 100 µM (inactive)	> 100 µM (inactive)	> 100 µM (inactive)	> 100 µM (inactive)		> 100 µM (inactive)
Cc1ncc(-c2nnnn2-c2ccccc2)c(C(=O)O)n1	> 100 µM (inactive)	> 100 µM (inactive)	> 100 µM (inactive)	> 100	> 100 µM (inactive)	> 100 µM (inactive)	> 100 µM (inactive)	> 100 µM (inactive)	> 100 µM (inactive)	> 100 µM (inactive)		> 100 µM (inactive)	> 100 µM (inactive)	> 100 µM (inactive)	> 100 µM (inactive)	> 100 µM (inactive)	> 100 µM (inactive)	> 100 µM (inactive)	> 100 µM (inactive)	> 100 µM (inactive)
Cc1cccc(C)c1NC(=O)/C=C/c1ccccc1	> 100 µM (inactive)	> 100 µM (inactive)	> 100 µM (inactive)	> 100	50.1 µM (inactive)	> 100 µM (inactive)	> 100 µM (inactive)	> 100 µM (inactive)	> 100 µM (inactive)	> 100 µM (inactive)	> 100 µM (inactive)	> 100 µM (inactive)	> 100 µM (inactive)	> 100 µM (inactive)	> 100 µM (inactive)	> 100 µM (inactive)	> 100 µM (inactive)	> 100 µM (inactive)		> 100 µM (inactive)
